These results are taken from PMC8799717, “Pharmacological targeting PIKfyve and tubulin as an effective treatment strategy for double-hit lymphoma” (Cell Death Discovery, 2022).

Molecules are shown by their SMILES.

Among the targets are EPHA5 (Homo sapiens, UniProt P54756); PIM1 (Homo sapiens, UniProt P11309); PKN1 (Homo sapiens, UniProt Q16512); CAMK2B (Homo sapiens, UniProt Q13554); ALK (Homo sapiens, UniProt Q9UM73); NEK9 (Homo sapiens, UniProt Q8TD19); CDK5 (Homo sapiens, UniProt Q00535); PRKG2 (Homo sapiens, UniProt Q13237); KIT-autoinhibited (Homo sapiens, UniProt P10721); TGFBR1 (Homo sapiens, UniProt P36897); PLK3 (Homo sapiens, UniProt Q9H4B4); STK39 (Homo sapiens, UniProt Q9UEW8); RET(M918T) (Homo sapiens, UniProt P07949, M918T); MYLK (Homo sapiens, UniProt Q15746); SRC (Homo sapiens, UniProt P12931); PIK3CA(E542K) (Homo sapiens, UniProt P42336, E542K); FLT3(N841I) (Homo sapiens, UniProt P36888, N841I); DAPK1 (Homo sapiens, UniProt P53355); AAK1 (Homo sapiens, UniProt Q2M2I8).

Experiment in all cases: biochemical
Set-up in all cases: KINOMEscan active-site-directed competition binding panel, 468 kinases, percent of DMSO control at 1 uM
Holding throughout (conditions): KINOMEscan binding, percent of DMSO control; read-out: Ctrl%

Another assay deals with T1, TAK1 (Homo sapiens, UniProt O43318).
T1 construct: gene MAP3K7

Assay [1] has as its target T2, ABL1(E255K)-phosphorylated (Homo sapiens, UniProt P00519, E255K).
T2 construct: phosphorylated

Another assay concerns the target T3, FAK (Homo sapiens, UniProt Q05397).
T3 construct: gene PTK2

For assay [2], the target named is T4, ABL1(T315I)-phosphorylated (Homo sapiens, UniProt P00519, T315I).
T4 construct: phosphorylated

Another assay concerns the target T5, DRAK2 (Homo sapiens, UniProt O94768).
T5 construct: gene STK17B

Sequence of EPHA5 (P54756 whole entry): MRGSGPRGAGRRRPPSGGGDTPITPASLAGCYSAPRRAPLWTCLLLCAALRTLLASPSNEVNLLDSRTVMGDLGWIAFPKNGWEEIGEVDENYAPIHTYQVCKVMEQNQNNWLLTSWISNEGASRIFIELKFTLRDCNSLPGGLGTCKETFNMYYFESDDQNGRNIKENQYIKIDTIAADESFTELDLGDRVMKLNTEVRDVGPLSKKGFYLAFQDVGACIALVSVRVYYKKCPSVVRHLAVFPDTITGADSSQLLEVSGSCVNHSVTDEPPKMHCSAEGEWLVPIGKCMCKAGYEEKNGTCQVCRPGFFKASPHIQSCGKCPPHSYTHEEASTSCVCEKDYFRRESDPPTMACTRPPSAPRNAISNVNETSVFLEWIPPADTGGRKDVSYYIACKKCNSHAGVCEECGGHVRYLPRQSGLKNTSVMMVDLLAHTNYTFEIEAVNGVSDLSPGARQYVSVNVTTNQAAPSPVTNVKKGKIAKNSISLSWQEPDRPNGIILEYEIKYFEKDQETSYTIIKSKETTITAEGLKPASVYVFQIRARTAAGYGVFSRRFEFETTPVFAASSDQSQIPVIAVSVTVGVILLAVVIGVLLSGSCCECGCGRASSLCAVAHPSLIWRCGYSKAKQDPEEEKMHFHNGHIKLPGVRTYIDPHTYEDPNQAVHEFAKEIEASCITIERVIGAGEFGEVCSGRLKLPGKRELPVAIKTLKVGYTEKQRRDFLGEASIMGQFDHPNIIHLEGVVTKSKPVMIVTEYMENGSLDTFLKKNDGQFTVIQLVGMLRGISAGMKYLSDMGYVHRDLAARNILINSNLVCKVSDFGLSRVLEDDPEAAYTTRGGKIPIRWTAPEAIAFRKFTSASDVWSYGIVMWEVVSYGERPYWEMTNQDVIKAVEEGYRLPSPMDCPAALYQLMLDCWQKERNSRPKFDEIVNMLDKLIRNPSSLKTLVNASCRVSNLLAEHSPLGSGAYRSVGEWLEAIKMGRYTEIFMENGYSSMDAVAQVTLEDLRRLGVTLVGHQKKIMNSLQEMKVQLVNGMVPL
Sequence of PKN1 (Q16512 whole entry): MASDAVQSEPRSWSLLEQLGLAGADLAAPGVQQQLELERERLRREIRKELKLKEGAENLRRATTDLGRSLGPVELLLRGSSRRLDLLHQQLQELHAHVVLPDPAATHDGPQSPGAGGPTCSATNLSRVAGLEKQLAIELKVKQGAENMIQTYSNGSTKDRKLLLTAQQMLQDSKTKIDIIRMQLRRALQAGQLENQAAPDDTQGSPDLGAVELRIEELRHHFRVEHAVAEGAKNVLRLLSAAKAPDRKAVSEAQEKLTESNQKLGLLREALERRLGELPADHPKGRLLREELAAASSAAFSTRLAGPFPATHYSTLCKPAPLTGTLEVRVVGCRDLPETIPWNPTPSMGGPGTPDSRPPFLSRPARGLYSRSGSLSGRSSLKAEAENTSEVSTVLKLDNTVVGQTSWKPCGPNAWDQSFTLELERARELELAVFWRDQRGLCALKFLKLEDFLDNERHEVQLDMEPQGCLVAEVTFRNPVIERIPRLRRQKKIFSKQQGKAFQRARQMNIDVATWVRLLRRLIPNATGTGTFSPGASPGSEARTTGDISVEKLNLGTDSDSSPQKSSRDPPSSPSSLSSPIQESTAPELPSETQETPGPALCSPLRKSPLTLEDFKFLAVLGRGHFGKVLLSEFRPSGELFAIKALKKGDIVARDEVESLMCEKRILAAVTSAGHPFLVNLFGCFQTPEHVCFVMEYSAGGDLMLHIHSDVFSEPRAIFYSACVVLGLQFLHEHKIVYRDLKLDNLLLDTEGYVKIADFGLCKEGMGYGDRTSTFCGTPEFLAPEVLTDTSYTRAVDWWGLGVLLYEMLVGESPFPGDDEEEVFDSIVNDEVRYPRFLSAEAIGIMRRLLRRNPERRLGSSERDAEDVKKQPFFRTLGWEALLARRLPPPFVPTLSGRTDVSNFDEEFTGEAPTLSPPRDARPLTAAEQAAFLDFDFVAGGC
T3 sequence (Q05397 whole entry): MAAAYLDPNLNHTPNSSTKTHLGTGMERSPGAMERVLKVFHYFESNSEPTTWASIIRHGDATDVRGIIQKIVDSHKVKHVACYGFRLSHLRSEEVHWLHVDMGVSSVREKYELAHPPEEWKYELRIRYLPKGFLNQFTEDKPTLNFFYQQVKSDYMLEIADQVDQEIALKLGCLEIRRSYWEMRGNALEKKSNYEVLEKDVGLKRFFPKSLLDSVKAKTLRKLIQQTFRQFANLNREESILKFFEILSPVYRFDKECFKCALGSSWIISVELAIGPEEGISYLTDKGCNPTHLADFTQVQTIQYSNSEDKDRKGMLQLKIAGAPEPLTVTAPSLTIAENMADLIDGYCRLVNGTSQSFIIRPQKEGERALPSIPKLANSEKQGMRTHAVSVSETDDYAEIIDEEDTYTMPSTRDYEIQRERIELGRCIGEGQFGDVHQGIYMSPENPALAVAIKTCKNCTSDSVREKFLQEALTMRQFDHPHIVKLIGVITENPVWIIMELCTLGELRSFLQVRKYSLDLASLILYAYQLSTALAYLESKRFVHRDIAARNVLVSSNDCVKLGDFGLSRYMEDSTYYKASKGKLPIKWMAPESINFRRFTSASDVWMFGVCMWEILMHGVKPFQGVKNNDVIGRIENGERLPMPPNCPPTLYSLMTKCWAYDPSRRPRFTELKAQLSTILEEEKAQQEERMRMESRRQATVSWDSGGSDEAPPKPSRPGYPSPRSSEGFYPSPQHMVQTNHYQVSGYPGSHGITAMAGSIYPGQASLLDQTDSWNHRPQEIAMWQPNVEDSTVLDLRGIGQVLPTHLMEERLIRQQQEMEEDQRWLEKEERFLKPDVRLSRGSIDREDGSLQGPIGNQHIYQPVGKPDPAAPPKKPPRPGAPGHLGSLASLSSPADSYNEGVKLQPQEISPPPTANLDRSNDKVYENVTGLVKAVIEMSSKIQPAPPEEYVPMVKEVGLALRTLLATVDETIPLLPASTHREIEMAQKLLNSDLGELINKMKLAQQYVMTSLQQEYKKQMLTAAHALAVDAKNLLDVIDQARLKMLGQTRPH
Sequence of PLK3 (Q9H4B4 whole entry): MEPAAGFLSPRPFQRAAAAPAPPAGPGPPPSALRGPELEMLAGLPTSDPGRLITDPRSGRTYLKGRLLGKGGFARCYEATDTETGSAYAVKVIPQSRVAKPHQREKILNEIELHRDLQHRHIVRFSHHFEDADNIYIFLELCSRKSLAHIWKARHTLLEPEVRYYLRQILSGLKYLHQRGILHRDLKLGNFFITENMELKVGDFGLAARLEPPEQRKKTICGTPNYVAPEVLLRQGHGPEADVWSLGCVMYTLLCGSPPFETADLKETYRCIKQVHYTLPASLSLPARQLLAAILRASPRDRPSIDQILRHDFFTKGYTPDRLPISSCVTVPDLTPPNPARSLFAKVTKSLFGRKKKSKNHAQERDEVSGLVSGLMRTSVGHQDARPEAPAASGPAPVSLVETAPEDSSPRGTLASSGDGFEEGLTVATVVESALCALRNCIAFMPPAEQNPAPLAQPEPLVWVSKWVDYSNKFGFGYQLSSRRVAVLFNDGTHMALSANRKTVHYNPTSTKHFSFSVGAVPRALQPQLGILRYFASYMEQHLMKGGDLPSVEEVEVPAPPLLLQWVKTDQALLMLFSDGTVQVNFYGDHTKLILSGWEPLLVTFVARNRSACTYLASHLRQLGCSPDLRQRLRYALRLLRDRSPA
Sequence of PRKG2 (Q13237 whole entry): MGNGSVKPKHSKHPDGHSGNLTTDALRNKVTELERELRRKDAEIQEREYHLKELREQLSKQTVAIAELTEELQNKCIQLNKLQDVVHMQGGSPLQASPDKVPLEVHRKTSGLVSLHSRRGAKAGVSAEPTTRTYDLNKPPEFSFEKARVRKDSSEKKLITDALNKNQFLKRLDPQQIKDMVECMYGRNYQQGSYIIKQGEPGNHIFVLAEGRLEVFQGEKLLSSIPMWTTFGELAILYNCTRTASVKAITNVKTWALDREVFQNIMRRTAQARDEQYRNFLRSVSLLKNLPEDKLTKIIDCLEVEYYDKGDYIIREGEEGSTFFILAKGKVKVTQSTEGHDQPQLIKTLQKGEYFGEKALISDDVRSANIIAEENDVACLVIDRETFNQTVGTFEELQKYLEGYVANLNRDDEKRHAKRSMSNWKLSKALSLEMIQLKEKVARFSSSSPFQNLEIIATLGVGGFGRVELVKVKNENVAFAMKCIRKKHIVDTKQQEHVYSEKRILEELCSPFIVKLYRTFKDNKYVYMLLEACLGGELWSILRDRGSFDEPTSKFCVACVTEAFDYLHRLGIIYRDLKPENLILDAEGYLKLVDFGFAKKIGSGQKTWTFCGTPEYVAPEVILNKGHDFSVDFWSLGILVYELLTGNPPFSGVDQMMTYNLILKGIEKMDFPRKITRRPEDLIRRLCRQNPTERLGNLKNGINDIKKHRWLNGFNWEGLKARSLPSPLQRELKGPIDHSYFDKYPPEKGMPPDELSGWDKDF
Sequence of CAMK2B (Q13554 whole entry): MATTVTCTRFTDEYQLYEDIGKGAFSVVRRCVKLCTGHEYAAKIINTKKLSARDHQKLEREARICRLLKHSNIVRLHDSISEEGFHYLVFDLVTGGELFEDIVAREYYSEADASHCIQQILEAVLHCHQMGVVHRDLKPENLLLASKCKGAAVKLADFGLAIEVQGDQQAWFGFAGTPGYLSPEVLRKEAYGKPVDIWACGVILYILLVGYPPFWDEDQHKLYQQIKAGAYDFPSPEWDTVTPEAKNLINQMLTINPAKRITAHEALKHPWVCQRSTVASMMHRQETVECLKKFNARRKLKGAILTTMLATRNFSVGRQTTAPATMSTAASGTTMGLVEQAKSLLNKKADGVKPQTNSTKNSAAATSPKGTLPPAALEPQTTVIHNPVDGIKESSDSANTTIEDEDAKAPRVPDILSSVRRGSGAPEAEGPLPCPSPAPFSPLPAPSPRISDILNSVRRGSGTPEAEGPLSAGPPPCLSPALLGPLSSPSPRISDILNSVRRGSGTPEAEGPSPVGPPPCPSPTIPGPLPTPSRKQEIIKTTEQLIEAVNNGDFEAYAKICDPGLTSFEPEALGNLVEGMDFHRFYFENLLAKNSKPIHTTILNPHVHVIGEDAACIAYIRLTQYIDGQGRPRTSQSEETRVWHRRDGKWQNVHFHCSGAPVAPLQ

In the case of `Cc1ccc(NC(=O)c2cccc(C(F)(F)F)c2)cc1Nc1cc(-c2cccnc2)nc2[nH]ccc12` [HZX-02-059], the remaining binding at 1 µM at EPHA5 turned out to be 17%; on PIM1, 92%; at PKN1, 93%; on TAK1, 73%; at CAMK2B, 94%; at ALK it was 100%. In addition, the remaining binding at 1 µM amounted to 71% on NEK9; 77% in assay [1]; 100% on CDK5; 89% at PRKG2; 88% on KIT-autoinhibited; 76% on TGFBR1. Moreover, the remaining binding at 1 µM at PLK3 was determined as 93%; at STK39, 94%; on RET(M918T), 99%; at FAK, 98%; at MYLK, 100%; on SRC it was 78%. For the same compound, the remaining binding at 1 µM in assay [2] was 98%; on PIK3CA(E542K), 56%; at FLT3(N841I), 88%; on DRAK2, 88%; at DAPK1, 93%; on AAK1, 87%.
